Here are results for 2 molecules from patent publication US20220348877A1, “GENERATION OF QUIESCENT CARDIAC FIBROBLASTS FROM HUMAN INDUCED PLURIPOTENT STEM CELLS FOR IN VITRO MODELING OF CARDIAC FIBROSIS” (The Board of Trustees of the Leland Stanford Junior …, priority 2019, published 2022).

Experiment [1] relates to human iPSC-CFs. The experiment can be described thus: Sirius red colorimetric assay of secreted collagen, iPSC-CFs. The note with it: 48 hrs. The class given is cell-based. The method, then:
Colorimetric assays. The cells were treated in the absence or presence of TGF-β for 48 hrs. Quantification of total secreted collagen in the cell culture supernatant was performed using a Sirius red collagen detection kit (9062, Chondrex). The colorimetric assay was performed according to the manufacturer's protocol.

The subject of experiment [2] is human iPSC-CFs. The experiment can be described thus: Collagen gel contraction assay. The class given is cell-based. Conditions: gels imaged after 24 hrs. On the procedure: Gel contraction assay. Collagen gel contraction assays were performed in three independent lines of iPSC-CFs (2.0×10^5 cells per well) using a Cell Contraction Assay kit (CBA5020, Cell Biolabs) as per the manufacturer's protocol. The cells were treated in the absence or presence of TGF-β±a TGF-β inhibitor SB431542 (SB). The gels were imaged after 24 hrs and gel area was quantified using ImageJ software (version 1.49).

For experiment [3], the system named is human iPSC-CFs. Briefly: Immunoblotting of α-SMA in drug-treated iPSC-CFs. It is filed as cell-based. The note with it: CFs from different human iPSC lines. On the procedure: Immunoblotting and quantification. Cultured cells were homogenized in the RIPA buffer with proteinase and phosphatase inhibitor cocktails (78440, ThermoFisher), and quantified by Pierce™ BCA Protein Assay Kit (Pierce Biotechnology Inc.). A total of 20 μg protein was separated on NuPAGE® Novex® 4-12% Bis-Tris Protein Gels (Invitrogen, Carlsbad, Calif.). After being transferred to Amersham™ Hybond™ Blotting Membranes (GE Healthcare), proteins were incubated with primary antibodies against α-SMA (ab7817, Abcam), periostin (ab14041, Abcam), collagen Ill (ab7778, Abcam), fibronectin (ab6328, Abcam), MYH7 (sc-53089, Santa Cruz), and GAPDH (MA5-15738, Invitrogen). Band intensities for target bands were analyzed and quantified by the ImageJ Fuji program.
(§1) Drug treatment. Unless otherwise stated, cells were treated with all drugs for 48 hrs. We used 5 ng/ml of TGFβ1 (240-B-010, R&D) to activate iPSC-CFs. Due to the short half-life, BNP (CYT-369, Prospec) was added into the medium three times a day. We used 20 μM of sacubitril (SML1380, Sigma) to inhibit ANP/BNP degradation. We used pirfenidone (S2907, Selleck Chemicals) and doxorubicin (25316-40-9, Selleck Chemicals) to test their anti-fibrotic and pro-fibrotic effects on iPSC-CFs, respectively.
(A western blot detects proteins with antibodies after separation by electrophoresis.)

Experiment [4] relates to human iPSC-CFs. Briefly: Quantitative real-time PCR of gene expression in drug-treated iPSC-CFs. It is filed as cell-based. On the procedure: Quantitative real-time PCR. Total RNA was isolated using the Qiagen miRNeasy Mini Kit (Qiagen Sciences, Inc, Germantown, Md.) following the manufacturer's instruction. For reverse transcription, a High Capacity RNA-to-cDNA kit (Life Technologies) was used, and the cDNA template was synthesized based on 1 μg of total mRNA. After mixing 0.2 μl of the cDNA template, 1 μl of TaqMan® primer sets (Life Technologies), 10 μl of TaqMan® Master Mix (Life Technologies), and 8.8 μl of ddH2O in the reaction system, real-time quantitative PCR was performed on the StepOne™ Real-Time PCR System (Life Technologies). Each reaction was run in triplicate. Expression values were normalized to the average expression of GAPDH.
as §1
Background: Real-time PCR tracks product formation cycle by cycle.

Experiment [5] deals with primary CFs. The experiment can be described thus: Sirius red colorimetric assay of secreted collagen, primary CFs. It is filed as cell-based, human. The note with it: 48 hrs. On the procedure: (§2) Human primary skin, cardiac, lung, bladder fibroblast, and brain pericyte cultures. Human primary cardiac fibroblasts were isolated and cultured as follows: a piece of fresh right atrial biopsy was weighed, minced into small pieces (1-2 mm^3), and digested in 6-well peri-dishes as described. Human primary cardiac fibroblasts were grown and maintained in a fibroblast growth medium (C-23025, Promocell) supplemented with 1% penicillin-streptomycin (15140-122, Gibco) in a humidified atmosphere (95% air, 5% CO2) at 37° C. The medium was renewed every 2-3 days. Cells were passaged using standard trypsinization techniques at 80-90% confluency. The same protocol was also used to isolate and culture fibroblasts from human skin and lung tissues. Primary bladder fibroblasts were purchased from Lifeline (FC-0050) and maintained in the same fibroblast growth medium. Human brain pericytes were purchased from Cell systems (ACBRI 498) and cultured in SmGM-2 medium (Lonza, CC-3182). All experiments were carried out using cells at low cell passages (<P4) and cells were serum-starved for 24 hrs before treatment.
Colorimetric assays. The cells were treated in the absence or presence of TGF-β for 48 hrs. Quantification of total secreted collagen in the cell culture supernatant was performed using a Sirius red collagen detection kit (9062, Chondrex). […]

The test system of the next experiment is human primary CFs. Briefly: Quantitative real-time PCR of cardiac-specific genes in primary CFs. It is filed as cell-based. On the procedure: as §2, with “All experiments were carried out using cells at low cell passages (<P4) and cells were serum-starved for 24 hrs before treatment.” left out
Quantitative real-time PCR. […] After mixing 0.2 μl of the cDNA template, 1 μl of TaqMan® primer sets (Life Technologies), 10 μl of TaqMan® Master Mix (Life Technologies), and 8.8 μl of ddH2O in the reaction system, real-time quantitative PCR was performed on the StepOne™ Real-Time PCR System (Life Technologies). […]

Experiment [6] relates to human iPSC-CFs. The experiment can be described thus: In vitro wound-healing assay, iPSC-CFs. Conditions: 25 ng/ml, 24-hour observation. The class given is cell-based. On the procedure:
In vitro wound-healing assay. The migration of human iPSC-CFs and primary CFs was determined using a Cytoselect™ 24-Well Wound Healing Assay Kit (CBA-120, Cell Biolabs). Briefly, after confluent monolayers of CFs were formed, cells were synchronized in a low serum medium (0.5% FBS) for 24 hrs. After the wound-generating scaffold was removed from each well, cells were washed in PBS to remove residual cells in the wounded area. Cells were treated with vehicle or PDGF-BB (25 ng/ml), and images were captured using a light microscope in identical areas at baseline, 12 hrs, and 24 hrs post-treatment. The cell-free areas at each time point were measured by Image-Pro Plus (version 6.0, Media Cybernetics). For quantification purposes, the wound area generated at 0 hr was set as S0, the uncovered areas captured at 12 hrs, and 24 hrs were recorded as Si (i=12 or 24). The wound closure rate was then calculated by the following equation: wound closure rate

Experiment [7] concerns primary CFs. The experiment can be described thus: In vitro wound-healing assay, primary CFs. It is filed as cell-based, human. Conditions: 25 ng/ml, 24-hour observation. On the procedure:
as §2, with “Human brain pericytes were purchased from Cell systems (ACBRI 498) and cultured in SmGM-2 medium (Lonza, CC-3182). All experiments were carried out using cells at low cell passages (<P4) and cells were serum-starved for 24 hrs before treatment.” left out
In vitro wound-healing assay. The migration of human iPSC-CFs and primary CFs was determined using a Cytoselect™ 24-Well Wound Healing Assay Kit (CBA-120, Cell Biolabs). […] The cell-free areas at each time point were measured by Image-Pro Plus (version 6.0, Media Cybernetics). For quantification purposes, the wound area generated at 0 hr was set as S0, the uncovered areas captured at 12 hrs, and 24 hrs were recorded as Si (i=12 or 24). The wound closure rate was then calculated by the following equation: wound closure rate

Consider transforming growth factor-β [TGF-β], for which, in the experiment with human iPSC-CFs [1], the secreted collagen content result was “rise in collagen content”. Further, in the experiment with human iPSC-CFs [2], the “collagen gel contraction effect vs vehicle group” value is recorded as “stronger”. Further, the “α-SMA protein levels after treatment” value with human iPSC-CFs [3] is recorded as “significantly increased”. Besides, in the experiment on human iPSC-CFs [4] (5 ng/ml TGFβ1, 48 hrs), the “expression levels of ACTA2 and POSTN vs vehicle treatment” value is “significantly increased”. In addition, in the experiment on human iPSC-CFs [4] (vs vehicle), the “expression levels of ECM genes COL1A1, COL3A1, COL4A2, FN1” value is listed as “significantly increased”; the “expression of MMP1” value is “downregulation”; the “expression of MMP2” value is “upregulation”; the “expression of TIMP1, TIMP2, TIMP3” value is recorded as “upregulation”. The “expression of proteoglycans (VCAN, CTGF, KAL1, TNC, SPARC) and focal adhesion molecules (ITGA4, ITGA5, ITGB5)” value in the experiment with human iPSC-CFs [4] (vs vehicle) is “upregulated expression”. For the same molecule, the secreted collagen content result in the experiment with primary CFs [5] is listed as “rise in collagen content”. Also, the “expression levels of cardiac-specific genes (GATA4, TBX20, TCF21) vs vehicle-treated cells” value with human primary CFs is recorded as “significantly downregulated”.

B1: platelet derived growth factor-BB: platelet derived growth factor-BB, migration stimulus (protein, UniProt P01127 82-190, looked up)
Platelet-derived growth …: SLGSLTIAEPAMIAECKTRTEVFEISRRLIDRTNANFLVWPPCVEVQRCSGCCNNRNVQCRPTQVQLRPVQVRKIEIVRKKPIFKKATVTLEDHLACKCETVAAARPVT
Consider B1, for which the “cell migration (wound closure)” value in the experiment with human iPSC-CFs [6] and with primary CFs [7] was “induced cell migration” in each case.
